Entries after “also recorded” stand apart in the source; their conditions may differ. Read-outs that look alike come from different tables or passages of the source.
Assays:
C6 rat glioma cells = assay: DNA synthesis (3H-thymidine incorporation) in C6 rat glioma cells; assay type: cell-based; details: for IC (maximal): Rattus norvegicus
Protocol: C6 rat glioma cells were routinely cultured in DMEM supplemented with 5% FCS (Biological Industries, Israel), GPS (100 U/ml penicillin, […] streptomycin (Biological Industries, Israel) and 2 mM glutamine (Biolab Ltd. Israel)) and 125 μg/ml fungizone (Biolab Ltd, Israel).
C6 rat glioma cells were plated in 96-well plates (Nunc, Denmark) (5000 cells per well) in DMEM with 5% FCS. After 6 hours the cells were rinsed and incubated for 48 hours in serum free medium. 5% FCS or growth factors were then added to the cells for 24 hours (triplicates). ^3 H-methyl-thymidine (5μCi/ml) (Rotem Ind. Ltd., Israel) was added to the cells for the last 14 hours. The cells were rinsed with 100 μl methanol for 10 minutes, followed by 200 μl 5% trichloroacetic acid, and then rinsed and lysed with 150 μl 0.3M NaOH. Radioactive thymidine incorporated into the DNA was determined for 1 min with 3 ml scintillation liquid (ULTIMA GOLD Packard) in a β-counter. DNA synthesis assays were performed in triplicates.
Disulfiram was prepared in 0.1 mM stock solutions in DMSO. Control samples were incubated with the appropriate concentration of DMSO. Inhibition was calculated as percentage of DNA synthesis of control.
To determine whether disulfiram acts directly on endothelial cells rather than on accessory cells such as macrophages and mast cells that can be responsible for the development of an angiogenic response in vivo, the effect of the drug on the growth of BCE cells was examined in vitro as described in section (c) of "Materials and Methods" above. DNA synthesis in BCE cells was measured in presence of increasing concentrations of disulfiram incubated for 24 hours with the cells. […] Maximal inhibitory activity (80%) for BSMC was at 0.5-1 μM disulfiram, while maximal inhibitory activity for C6 glioma cells or BALB/MK keratinocytes was at concentrations 10 fold higher (2-3 μM) than those for endothelial cells (0.2-0.5 μM).
To examine the time course of the effect of disulfiram and whether the effect was reversible, cells were incubated with disulfiram for various periods of time (1, 2, 4 and 24 hours), then washed away and DNA synthesis was determined. One to 4 hours of exposure to disulfiram were enough to induce maximal inhibitory effect at concentrations ranging from 0.5 μM for BCE cells (FIG. 3A) to 5 μM for BALB/MK keratinocytes (FIG. 3C) and C6 glioma cells (FIG. 3D). […] BSMC were less sensitive as far as time course is concerned when incubated with 1 μM disulfiram. Following 4 hours of incubation with 1 μM disulfiram, DNA synthesis inhibition in BSMC reached only 50% (FIG. 3B). […]

BCE cells = assay: Apoptosis by FACS (DNA content) in BCE cells; assay type: cell-based, bovine; details: 0.5-5 μM, 20 hours
Protocol: Cells were cultured in plastic tissue culture dishes for 48 hours in presence of growth media as described above, until reaching 40-50% confluency. Disulfiram was then added to the cells for 20 hours. The cells were removed from the plates by EDTA-trypsin and fixed in ice-cold 70% ethanol (BioLab, Israel) in -20° C. for 2 hr to overnight. The fixed cells (2-5×10^6) were washed once with HEPES-buffered saline (HBSS) and incubated with 0.5 mg/ml RNAseH (Boehringer Mannheim). Afterwards the cells were resuspended in HBSS containing 50 μg/ml propidium iodide (Sigma) and subsequently analyzed on a FACSort flow cytometer (Beckton Dickinson Inc.) using Lysis II software. For the analysis, 10,000 cells were examined from each sample. The percentage of the hypodiploid cells was measured (Darzynkiewicz, 1992; Afanasyev, 1993). The cell cycle histogram was divided into four regions according to the cell cycle phases: Ap, apoptotic cells; G1, diploid cells; S, intermediate cells; and G2 /M, tetraploid cells.
Capillary endothelial cells were grown during 48 hours to 40-50% confluency and disulfiram was then added to the cells for 20 hours as described in section (g) of "Materials and Methods" above. […] The abundance of apoptotic cells was dose-dependent.

C6 glioma cells = assay: Cell rounding, C6 glioma cells; assay type: cell-based, rat; details: 2 μM
BSMC = assay: TUNEL assay for apoptosis, BSMC; assay type: cell-based, bovine; details: 1 μM, 6 hours
Protocol: Cells were cultured on microscope slides for 48 hours in presence of growth media as described above, until reaching 40-50% confluency. Disulfiram was then added to the cells for 6 hours or for 20 hours in the case of BALB/MK keratinocytes, fixed with 4% paraformaldehyde and washed three times with PBS. Apoptosis was analyzed by the in situ TUNEL staining carried out as described (Wride, 1994). Briefly, microscope slides were incubated for 15 min in 2×SSC buffer at 60° C., washed in DDW and incubated with 20 μg/ml proteinase K (Boehringer Mannheim) for 15 min at room temperature. After a wash with DDW, endogenous peroxidases were inactivated by incubating the slides with 2% H2 O2 in PBST (PBS with 0.05% Tween 20) for 10 min at room temperature. Slides were then incubated in TdT buffer (Boehringer Mannheim) for 5 min at room temperature, and a reaction mixture containing 5×TdT buffer and 1 μl biotin-21-dUTP (Clontech, 1 mM stock) and 8 units of the TdT enzyme (Boehringer Mannheim) in total volume of 50 μl was subsequently added. The reactions were carried out at 37° C. for 1.5 hr in a humid chamber. The slides were washed in 2×SSC, DDW and finally with PBS and covered with 10% skim milk in PBST for 15 min. […]

fibroblasts = assay: Induction of apoptosis, fibroblasts; assay type: cell-based
Meth A tumor cell = details: together with ascorbic acid, in vitro; cited from earlier work
[1] = test system: neoplasia of the large bowl; details: 1,2-dimethylhydrazine; cited from earlier work
[2] = test system: transmammary carcinogenesis; details: 7,12-dimethylbenz(a)anthracene, mice; cited from earlier work
[3] = ingested or injected intraperitoneally; cited from earlier work
[4] = in vivo; cited from earlier work

## CCN(CC)C(=S)SSC(=S)N(CC)CC [disulfiram, Bis(diethylthiocarbamoyl) disulfide]
C6 rat glioma cells; C6 glioma vs endothelial cells (0.2-0.5 μM)
  maximal inhibitory concentration relative to endothelial cells, fold higher: 10 fold
C6 rat glioma cells; C6 glioma, 24 hours following short exposure
  persistence of inhibitory effect after short exposure: inhibitory effect seemed to be maintained
C6 rat glioma cells; C6 glioma cells, read-out: concentration of maximal inhibitory activity (DNA synthesis)
  IC (maximal): 2 to 3 µM
C6 rat glioma cells; C6 glioma, 1 to 4 hours of exposure, washed, read-out: concentration inducing maximal inhibitory effect on DNA synthesis, short exposure
  IC (maximal): 5 µM
BCE cells
  apoptosis by FACS analysis of DNA content: induced in a dose-dependent manner a sub-diploid apoptotic population; also recorded: appearance of a sub-diploid apoptotic population of cells
  dose dependence of abundance of apoptotic cells (FACS): dose-dependent
C6 glioma cells
  cell rounding: did not change their shape to the rounded form
BSMC
  apoptosis by TUNEL method: not labeled; also recorded: did not induce
fibroblasts
  induction of apoptosis: fails to induce apoptosis
Meth A tumor cell
  inhibition of Meth A tumor cell proliferation: augmented inhibition
[1]
  interference with neoplasia of the large bowl: interfere with induction of cancer
[2]
  inhibition of transmammary carcinogenesis: inhibit transmammary carcinogenesis
[3]
  distribution throughout the body: extensively distributed throughout the body including the brain
[4]
  conversion into main metabolite diethyldithiocarbamate (DDC): quickly converted

Reference: US6288110A, “Pharmaceutical compositions comprising disulfiram” (Yeda Research and Development Co Ltd., priority 1998, dated 2001)
